From ChEMBL document CHEMBL2029324, “A small molecule regulates hairpin structures in d(CGG) trinucleotide repeats” (Bioorg Med Chem Lett, 2012)
The source made the active and inactive calls. No cut-off for these calls is given here.

Key:
Assay type in all cases: nucleic-acid assay
Nucleic Acid [1] = assay: Binding affinity to d(CCG)10 DNA assessed as hairpin loop formation at 30 uM by PAGE analysis
Nucleic Acid [2] = assay: Binding affinity to d(CGG)10 DNA assessed as formation of compound-DNA hairpin loop of the template at low compound concentration
Nucleic Acid [3] = assay: Binding affinity to d(CGG)10 DNA assessed as inhibition of Taq polymerase at first (CGG)10 repeat region from 3'-end of the template at increasing concentration
Nucleic Acid [4] = assay: Binding affinity to d(CCG)10 DNA assessed as increase in melting temperature at 5 to 20 uM
Nucleic Acid [5] = assay: Binding affinity to d(CGG)10 DNA assessed as hairpin loop formation at 1 to 30 uM by PAGE analysis
Nucleic Acid [6] = assay: Binding affinity to d(CGG)10 DNA assessed as thermal denaturation at 100 degC and 20 uM
Nucleic Acid [7] = assay: Binding affinity to d(CGG)10 DNA assessed as increase in strong positive peak by CD-UV analysis
Nucleic Acid [8] = assay: Binding affinity to d(CGG)10 DNA assessed as increase in positive induced CD at 5 to 20 uM by CD-UV analysis
Nucleic Acid [9] = assay: Binding affinity to d(CGG)10 DNA assessed as inhibition of Taq polymerase-mediated DNA replication
Nucleic Acid [10] = assay: Binding affinity to d(CGG)10 DNA assessed as inhibition of Taq polymerase at first and fifth part of the (CGG)10 repeat region from 3'-end of the template at 5 uM
Nucleic Acid [11] = assay: Binding affinity to d(CGG)10 DNA assessed as formation of stable compound-DNA hairpin loop of the template at increasing compound concentration
Nucleic Acid [12] = assay: Binding affinity to d(CCG)10 DNA assessed as inhibition of Taq polymerase-mediated DNA replication at 20 uM
Nucleic Acid [13] = assay: Binding affinity to d(CGG)10 DNA assessed as decrease in signal intensity by CD-UV analysis

Structure (SMILES): Cc1ccc2ccc(NC(=O)OCCCNCCCOC(=O)Nc3ccc4ccc(C)nc4n3)nc2n1
- Activity (Nucleic Acid [1]): inactive
- Activity (Nucleic Acid [2]): Active
- Activity (Nucleic Acid [3]): Active
- Activity (Nucleic Acid [4]): inactive
- Activity (Nucleic Acid [5]): Active
- Activity (Nucleic Acid [6]): inactive
- Activity (Nucleic Acid [7]): Dose-dependent effect
- Activity (Nucleic Acid [8]): Active
- Activity (Nucleic Acid [9]): Dose-dependent effect
- Activity (Nucleic Acid [10]): Active
- Activity (Nucleic Acid [11]): Active
- Activity (Nucleic Acid [12]): inactive
- Activity (Nucleic Acid [13]): Dose-dependent effect
